Measurements: the supplement of paper PMC4862054
Values joined by “and” are separate entries in the source; they are usually repeats but may differ in a detail not shown here. Identical values can stand only once.

What was measured:
DU-4475 = settings: 72 h
In short: (§1)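 Each 384-well plate was pre-loaded with compound dissolved in 5 µl medium, received breast cancer cells in 20 µl suspension, and was incubated 72 h. A 2.5 µl addition of CellTiter-Blue for 2 h at 37 °C was followed by a fluorescence read at 560/590 nm. Data were normalised per plate to vehicle and a positive kill control and checked by Z'-factor. EC50 was fitted from the percent-inhibition dose-response curve, censored at the highest concentration, excluding rows with a drug sensitivity score of zero.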

MDA-MB-453 = settings: 72 h
In short: as §1

CAL-51 = settings: 72 h
In short: as §1

HDQ-P1 = settings: 72 h
In short: as §1

CAL-85-1 = settings: 72 h
In short: as §1

BT-549 = assay: drug sensitivity score (DSS), CellTiter-Blue viability (DSS (AUC-based score)); higher = stronger viability inhibition; extreme values may be limits of the assay; settings: incubation time: 72 h
In short: (§2)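 Cells from breast cancer lines were grown with compound for 72 h in 384-well plates, using a 5- or 9-concentration series. CellTiter-Blue fluorescence (560/590 nm) served as the viability readout, normalised plate by plate to 0.1 % DMSO and a positive kill control. A drug sensitivity score was computed as the area under the fitted dose-response curve.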

MDA-MB-436 = assay: as above; settings: incubation time: 72 h
In short: as §2

SK-BR-3 = assay: as above; settings: incubation time: 72 h
In short: as §2

MDA-MB-468 = settings: 72 h
In short: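 EC50 was fitted from dose-response curves and censored at the highest concentration tested. To build those curves, breast cancer cell lines (20 µl suspension) were seeded into 384-well plates containing compound at 5 concentrations in 10-fold steps over a compound-specific 10,000-fold range and incubated for 72 h. Readouts were CellTox Green fluorescence (485/520 nm) for cell death and then CellTiter-Glo luminescence for viability, with each plate normalised to 0.1 % DMSO and a positive kill control.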

Row | SMILES | EC50, CellTiter-Blue viability (DU-4475) [nM] | EC50, CellTiter-Blue viability (MDA-MB-453) [nM] | EC50, CellTiter-Blue viability (CAL-51) [nM] | EC50, CellTiter-Blue viability (HDQ-P1) [nM] | EC50, CellTiter-Blue viability (CAL-85-1) [nM] | drug sensitivity score (BT-549) | drug sensitivity score (MDA-MB-436) | drug sensitivity score (SK-BR-3) | EC50, CellTiter-Glo (MDA-MB-468) [nM]
1 | Nc1cc(C(F)(F)F)c(-c2cc(N3CCOCC3)nc(N3CCOCC3)n2)cn1 [BKM-120] | 2260 | 532 | 922 | 1260 | 1310 | 8.93 | 4.25 | 16.8 | –
2 | CN(C)CCOc1ccc(/C(=C(/CCCl)c2ccccc2)c2ccccc2)cc1 [Toremifene] | – | 7240 | – | – | – | 0 | 1.83 | 0 | –
3 | O=C(Nc1ccncc1)C(=O)c1cn(Cc2ccc(Cl)cc2)c2ccccc12 [Indibulin] | 1530 | 36.1 | 631 | 72.5 | 201 | 16.6 | 8.9 | 25.9 | 273
4 | Cc1[nH]c2ccccc2c1CCNCc1ccc(/C=C/C(=O)NO)cc1 [Panobinostat] | 18.2 | 4.43 | 49.7 | 35 | 23.8 | 9.07 | 9.42 | 23 | 39
5 | Cc1cc(Nc2cc(CN3CCOCC3)c3nc(C)c(Cc4ccc(Cl)cc4F)n3n2)n[nH]1 | 2130 | 851 | 2150 | 930 | 2650 | 6.94 | 7.24 | 6.64 | –
6 | COc1cc(O)c2c(c1)/C=C/C[C@H](O)[C@H](O)C(=O)/C=C\C[C@H](C)OC2=O [(5Z)-7-Oxozeaenol] | – | – | – | – | – | – | – | – | 953
7 | COC(=O)c1ccc2c(c1)NC(=O)/C2=C(\Nc1ccc(N(C)C(=O)CN2CCN(C)CC2)cc1)c1ccccc1 [Nintedanib] | – | – | – | – | – | – | – | – | 3360
8 | CNC(=O)c1cc(Oc2ccc(NC(=O)Nc3ccc(Cl)c(C(F)(F)F)c3)c(F)c2)ccn1 [Regorafenib] | 3000 | 2740 | 2740 | – | – | 1.64 | 0 | 0 | 6340
9 | CCOC(=O)CCNc1cc(N2CCc3ccccc3CC2)nc(-c2ccccn2)n1 [GSK-J4] | – | – | – | – | – | – | – | – | 1890
10 | S=P(N1CC1)(N1CC1)N1CC1 [Thio-TEPA] | – | – | – | – | – | 0 | 0 | 0 | –
11 | C=C1C[C@@H]2[C@H](CC[C@]3(C)C(=O)CC[C@@H]23)[C@@]2(C)C=CC(=O)C=C12 [Exemestane] | – | 916 | – | – | – | 0 | 0 | 0 | –
12 | N#Cc1ccc(COC[C@H]2O[C@@H](n3c(NCc4ccc(Cl)c(Cl)c4)nc4c(N)ncnc43)[C@H](O)[C@@H]2O)cc1 | 2320 | – | – | – | – | 4.23 | 4.85 | 1.46 | 2270
13 | O=C(Nc1cccnc1)N1CCC(Cc2cccc(Oc3ccc(C(F)(F)F)cn3)c2)CC1 [PF-3845] | – | 2640 | 5960 | – | – | 4.79 | 0 | 0 | 2500
14 | c1ccc2c(CCNc3ccc(Nc4ccncc4)cc3)c[nH]c2c1 [Serdemetan] | 4500 | 2980 | 4940 | – | – | 6.96 | 8.76 | 0 | 2280
15 | CNC(=O)c1cccc(-c2ccc3c(N4CCOC[C@@H]4C)nc(N4CCOC[C@@H]4C)nc3n2)c1 [AZD2014] | – | – | – | – | – | – | – | – | 497
16 | Nc1cc(C(F)(F)F)c(-c2cc(N3CCOCC3)nc(N3CCOCC3)n2)cn1 [Buparlisib] | – | – | – | – | – | – | – | – | 2710
17 | Cc1cc(Nc2cc(CN3CCOCC3)c3nc(C)c(Cc4ccc(Cl)cc4F)n3n2)n[nH]1 [Gandotinib] | – | – | – | – | – | – | – | – | 711

Row | SMILES | EC50, CellTiter-Blue viability (DU-4475) [nM] | EC50, CellTiter-Blue viability (MDA-MB-453) [nM] | EC50, CellTiter-Blue viability (CAL-51) [nM] | EC50, CellTiter-Blue viability (HDQ-P1) [nM] | EC50, CellTiter-Blue viability (CAL-85-1) [nM] | drug sensitivity score (BT-549) | drug sensitivity score (MDA-MB-436) | drug sensitivity score (SK-BR-3) | EC50, CellTiter-Glo (MDA-MB-468) [nM]
18 | COc1cc2/c(=N/c3ccc(Br)cc3F)nc[nH]c2cc1OCC1CCN(C)CC1 [Vandetanib] | – | 4640 | 2900 | 191 | 2590 | 5.01 | 13 | 4.07 | 7.82
19 | COCC[n+]1c2c(n(Cc3cnccn3)c1C)C(=O)c1ccccc1C2=O [YM155] | 114 | 6.99 | 20.2 | 11.4 | 6.98 | 26.8 | 37.9 | 37 | 3.73
20 | CC(C)C[C@@H](C(=O)N[C@H](C(=O)OC1CCCC1)c1ccccc1)[C@H](O)C(=O)NO [Tosedostat] | 126 | 86.3 | 6030 | 268 | 2940 | 11.3 | 1.84 | 0 | 75.6
21 | COc1cc(OC2CCN(C)CC2)ccc1Nc1ncc2c(n1)n(C1CCCC1)c(=O)n2C [AZ 3146] | 5180 | 6400 | 1390 | – | 3240 | 0 | 0 | 2.13 | 6650
22 | O=C(/C=C/c1cccc(S(=O)(=O)Nc2ccccc2)c1)NO [Belinostat] | 478 | 125 | 1170 | 488 | 666 | 8.08 | 12.2 | 19 | 410
23 | COc1cc2c(NC3CCN(C(C)C)CC3)nc(N3CCC(F)(F)CC3)nc2cc1OCCCN1CCCC1 [UNC0642] | – | – | – | – | – | – | – | – | 2050
24 | Oc1ccc2c(c1)CC[C@H](c1ccccc1)[C@@H]2c1ccc(OCCN2CCCC2)cc1 [Lasofoxifene] | – | – | – | – | – | 0 | 0 | 0 | –
25 | CN(C)c1nc(N(C)C)nc(N(C)C)n1 [Altretamine] | – | 6880 | – | – | 9540 | 0 | 0 | 0 | –
26 | CCc1c2c(nc3ccc(OC(=O)N4CCC(N5CCCCC5)CC4)cc13)-c1cc3c(c(=O)n1C2)COC(=O)[C@]3(O)CC [Irinotecan] | 2550 | 4750 | 2940 | > 10000 | 3510 | – | – | 6.6 and 2.45 | 1620
27 | COc1cc2ncnc(Nc3ccc(F)c(Cl)c3)c2cc1OCCCN1CCOCC1 [Gefitinib] | – | 5030 | – | 3330 | – | 2.48 and 0.865 | 0 | 6.49 and 10.4 | 2800
28 | CO[C@H]1C[C@@H]2CC[C@@H](C)[C@@](O)(O2)C(=O)C(=O)N2CCCC[C@H]2C(=O)O[C@H]([C@H](C)C[C@@H]2CC[C@@H](OP(C)(C)=O)[C@H](OC)C2)CC(=O)[C@H](C)/C=C(\C)[C@@H](O)[C@@H](OC)C(=O)[C@H](C)C[C@H](C)/C=C/C=C/C=C/1C [Ridaforolimus] | 1.13 | 0.59 | 1.65 | 3.88 | 0.17 | 17.6 | 1.25 | 16.8 | 0.33
29 | Cc1ccc(NC(=O)c2ccc(CN3CCN(C)CC3)cc2)cc1Nc1nc(-c2cccnc2)cs1 [Masitinib] | – | 4580 | – | – | – | 0 | 0.552 | 2.27 | 2290
30 | COCC1(CO)C(=O)C2CCN1CC2 (stereo not drawn) [Prima-1 Met] | – | – | – | – | – | 0 | 0 | 0 | –
31 | O=P1(N(CCCl)CCCl)NCCCO1 (stereo not drawn) [Cyclophosphamide] | – | – | – | – | – | 0 | 0.105 | 0 | –
32 | COC(=O)c1ccc2c(c1)NC(=O)/C2=C(\Nc1ccc(N(C)C(=O)CN2CCN(C)CC2)cc1)c1ccccc1 [BIBF 1120] | 6940 | 3180 | 1400 | 5930 | 6440 | 3.02 | 1.32 | 2.7 | –
33 | NC(=O)c1ccc(I)c([N+](=O)[O-])c1 [Iniparib] | – | – | – | – | – | 0 | 0 | 0 | 230
